In patent publication US20240398784A1, “C-LINKED ISOQUINOLINE AMIDES AS LRRK2 INHIBITORS, PHARMACEUTICAL COMPOSITIONS, AND USES THEREOF” (Merck Sharp & Dohme LLC, priority 2021, published 2024):

Molecular target: LRRK2 G2019S (Homo sapiens, UniProt Q5S007, G2019S)
Experiment: LRRK2 G2019S Km ATP LanthaScreen assay
Format: biochemical
Conditions: read-out: LRRK2 pIC50 (converted)
Method: Unless otherwise noted, all reactions are magnetically stirred. Unless otherwise noted, when diethyl ether is used in the experiments described below, it is Fisher ACS certified material and is stabilized with BHT. Unless otherwise noted, “concentrated” and/or “solvent removed under reduced pressure” means evaporating the solvent from a solution or mixture using a rotary evaporator or vacuum pump. Unless otherwise noted, flash chromatography is carried out on a Teledyne Isco (Lincoln, NE), Analogix (Burlington, WI), or Biotage (Stockholm, SWE) automated chromatography system using a commercially available cartridge as the column. Columns may be purchased from Teledyne Isco, Analogix, Biotage, Varian (Palo Alto, CA), or Supelco (Bellefonte, PA) and are usually filled with silica gel as the stationary phase. Reverse phase prep-HPLC conditions, where used, can be found at the end of each experimental section. Aqueous solutions were concentrated on a Genevac (Ipswich, ENG) or by freeze-drying/lyophilization.

Chain of LRRK2 G2019S (Q5S007 whole entry G2019S): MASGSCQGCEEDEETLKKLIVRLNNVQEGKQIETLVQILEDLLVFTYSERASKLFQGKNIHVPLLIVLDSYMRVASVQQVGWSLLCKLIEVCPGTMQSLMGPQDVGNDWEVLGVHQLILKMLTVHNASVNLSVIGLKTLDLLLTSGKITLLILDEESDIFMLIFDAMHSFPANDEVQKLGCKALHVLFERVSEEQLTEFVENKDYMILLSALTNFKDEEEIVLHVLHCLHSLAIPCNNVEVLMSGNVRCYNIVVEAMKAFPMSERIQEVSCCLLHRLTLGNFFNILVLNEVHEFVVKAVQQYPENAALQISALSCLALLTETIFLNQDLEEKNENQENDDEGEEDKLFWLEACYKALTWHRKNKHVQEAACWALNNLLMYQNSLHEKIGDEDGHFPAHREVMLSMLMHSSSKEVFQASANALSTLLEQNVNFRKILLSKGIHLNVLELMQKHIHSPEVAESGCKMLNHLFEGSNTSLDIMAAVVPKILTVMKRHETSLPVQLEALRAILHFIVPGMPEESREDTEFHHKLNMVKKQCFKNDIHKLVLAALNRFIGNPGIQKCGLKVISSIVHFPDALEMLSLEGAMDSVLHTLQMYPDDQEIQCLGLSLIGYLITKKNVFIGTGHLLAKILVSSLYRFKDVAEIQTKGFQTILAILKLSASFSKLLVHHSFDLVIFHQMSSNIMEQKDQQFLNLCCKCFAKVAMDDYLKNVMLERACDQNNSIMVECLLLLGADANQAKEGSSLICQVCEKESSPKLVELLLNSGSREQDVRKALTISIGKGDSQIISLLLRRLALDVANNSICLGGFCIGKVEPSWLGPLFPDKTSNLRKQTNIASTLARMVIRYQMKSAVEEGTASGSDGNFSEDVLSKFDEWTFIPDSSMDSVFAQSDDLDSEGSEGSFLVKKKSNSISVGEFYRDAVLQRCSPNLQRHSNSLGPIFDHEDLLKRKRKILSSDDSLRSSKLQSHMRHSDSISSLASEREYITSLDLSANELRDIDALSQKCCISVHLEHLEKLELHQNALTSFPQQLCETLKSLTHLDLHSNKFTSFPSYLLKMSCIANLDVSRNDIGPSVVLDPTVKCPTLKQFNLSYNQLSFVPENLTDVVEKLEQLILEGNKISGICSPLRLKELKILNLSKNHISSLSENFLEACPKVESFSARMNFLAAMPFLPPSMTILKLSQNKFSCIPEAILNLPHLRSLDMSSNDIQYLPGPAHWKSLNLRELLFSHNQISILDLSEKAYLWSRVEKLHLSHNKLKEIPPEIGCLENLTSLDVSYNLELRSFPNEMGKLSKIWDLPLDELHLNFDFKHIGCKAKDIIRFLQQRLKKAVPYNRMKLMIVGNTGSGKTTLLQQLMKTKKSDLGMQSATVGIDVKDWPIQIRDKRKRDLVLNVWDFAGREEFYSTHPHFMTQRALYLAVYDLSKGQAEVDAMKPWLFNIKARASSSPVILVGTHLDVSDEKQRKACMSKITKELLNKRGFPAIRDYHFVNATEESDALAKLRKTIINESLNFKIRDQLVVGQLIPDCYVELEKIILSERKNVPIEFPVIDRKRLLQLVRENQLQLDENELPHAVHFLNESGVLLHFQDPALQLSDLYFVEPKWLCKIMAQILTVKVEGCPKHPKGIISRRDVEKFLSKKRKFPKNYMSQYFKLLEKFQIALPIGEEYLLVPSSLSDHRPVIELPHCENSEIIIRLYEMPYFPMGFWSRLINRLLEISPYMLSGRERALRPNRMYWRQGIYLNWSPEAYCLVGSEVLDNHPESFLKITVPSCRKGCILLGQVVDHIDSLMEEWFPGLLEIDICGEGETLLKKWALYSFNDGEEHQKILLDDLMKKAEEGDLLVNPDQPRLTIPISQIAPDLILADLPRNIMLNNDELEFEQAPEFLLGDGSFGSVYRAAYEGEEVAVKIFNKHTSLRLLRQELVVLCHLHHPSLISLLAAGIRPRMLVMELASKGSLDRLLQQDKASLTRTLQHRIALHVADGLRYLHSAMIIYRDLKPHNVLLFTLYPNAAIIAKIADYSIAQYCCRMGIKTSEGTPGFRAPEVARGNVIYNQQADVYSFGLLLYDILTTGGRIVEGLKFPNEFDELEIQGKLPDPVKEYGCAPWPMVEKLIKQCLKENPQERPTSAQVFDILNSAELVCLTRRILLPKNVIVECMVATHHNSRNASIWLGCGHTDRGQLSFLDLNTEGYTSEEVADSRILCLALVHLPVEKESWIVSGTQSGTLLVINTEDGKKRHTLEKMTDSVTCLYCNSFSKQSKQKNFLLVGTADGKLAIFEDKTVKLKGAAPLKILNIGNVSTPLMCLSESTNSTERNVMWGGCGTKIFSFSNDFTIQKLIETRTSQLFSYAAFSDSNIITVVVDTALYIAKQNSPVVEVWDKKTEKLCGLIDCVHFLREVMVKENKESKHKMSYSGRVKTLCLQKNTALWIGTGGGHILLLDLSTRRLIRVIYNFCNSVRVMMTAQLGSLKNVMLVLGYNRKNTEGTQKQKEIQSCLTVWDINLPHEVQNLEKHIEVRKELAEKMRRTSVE

Structure (SMILES)	IC50 [nM]
COC1CC(C(=O)Nc2cc3cc(C4(C#N)CC45CC5)ccc3cn2)C1 (single isomer, unassigned) [Ex-1.2, (1R,3R or 1S,3S)-N-(6-((R or S)-1-cyanospiro[2.2]pentan-1-yl)isoquinolin-3-yl)-3-methoxycyclobutane-1-carboxamide]	0.661
CC1C(C(=O)Nc2cc3cc(C4CCN(C5(C)COCC5O)CC4)c(Cl)cc3cn2)C1c1ccccn1 (single isomer, unassigned) [Ex-4.54, N-(7-chloro-6-(1-(4-hydroxy-3-methyltetrahydrofuran-3-yl)piperidin-4-yl)isoquinolin-3-yl)-2-methyl-3-(pyridin-2-yl)cyclopropane-1-carboxamide]	9.12
Cc1cc2cnc(NC(=O)C3C4CCOCC43)cc2cc1C1CCN(C2(C)COCC2O)CC1 (stereo not drawn) [Ex-2.52]	0.676
CC1(N2CCC(c3cc4cc(NC(=O)C5CC56CCOC6)ncc4cc3Cl)CC2)COCC1F (single isomer, unassigned) [Ex-6.5, (R or S)-N-(7-chloro-6-(1-((3R,4R or 3S,4S)-4-fluoro-3-methyltetrahydrofuran-3-yl)piperidin-4-yl)isoquinolin-3-yl)-5-oxaspiro [2.4] heptane-1-carboxamide]	0.537
CC1(C)CC(C(=O)Nc2cc3cc(C4CCN(C5(C)COCC5O)CC4)c(Cl)cc3cn2)CCO1 (stereo not drawn) [Ex-2.35]	2.63
Cn1ncc(C2CC2C(=O)Nc2cc3cc(C4CCN(C5(C)COCC5O)CC4)c(Cl)cc3cn2)c1C(F)(F)F (single isomer, unassigned) [Ex-4.37, N-(7-chloro-6-(1-(4-hydroxy-3-methyltetrahydrofuran-3-yl)piperidin-4-yl)isoquinolin-3-yl)-2-(1-methyl-5-(trifluoromethyl)-1H-pyrazol-4-yl)cyclopropane-1-carboxamide]	0.0813
CC1C(C(=O)Nc2cc3cc(C4CCN(C5(C)COCC5O)CC4)c(Cl)cc3cn2)C1c1ccccn1 (single isomer, unassigned) [Ex-4.53, N-(7-chloro-6-(1-(4-hydroxy-3-methyltetrahydrofuran-3-yl)piperidin-4-yl)isoquinolin-3-yl)-2-methyl-3-(pyridin-2-yl)cyclopropane-1-carboxamide]	3.98
Cn1ccc(C2CC2C(=O)Nc2cc3cc(C4(C#N)CC45CC5)ccc3cn2)n1 (stereo not drawn) [Ex-2.71]	5.75
N#CC1(c2ccc3cnc(NC(=O)C4CC(OC(F)F)C4)cc3c2)CC12CC2 (single isomer, unassigned) [Ex-2.6]	9.12
CC(C(=O)Nc1cc2cc(C3CCN(C4(C)COCC4O)CC3)c(Cl)cc2cn1)c1cnn(C)c1 (stereo not drawn) [Ex-2.106]	0.288
CC1(N2CCC(c3cc4cc(NC(=O)C5CC56CCC6)ncc4cc3Cl)CC2)COCC1O (single isomer, unassigned) [Ex-4.7, N-(7-chloro-6-(1-(4-hydroxy-3-methyltetrahydrofuran-3-yl)piperidin-4-yl)isoquinolin-3-yl)spiro[2.3]hexane-1-carboxamide]	0.0813
CC1(N2CCC(c3cc4cc(NC(=O)Cc5ccccn5)ncc4cc3Cl)CC2)COCC1O (stereo not drawn) [Ex-3.6]	0.24
CC1(C)CC(C(=O)Nc2cc3cc(C4CCC(N5CCC(F)C5)CC4)c(Cl)cc3cn2)CCO1 (single isomer, unassigned) [Ex-5.9, N-(7-chloro-6-(4-(3-fluoropyrrolidin-1-yl)cyclohexyl)isoquinolin-3-yl)-2,2-dimethyltetrahydro-2H-pyran-4-carboxamid]	1.78

The next lines start with the values.

IC50 [nM]	Structure (SMILES)
47.9	Cc1cc2cnc(NC(=O)C3CC34CCOCC4)cc2cc1C1CCN(C2(C)COCC2C)CC1 (single isomer, unassigned) [Ex-15.3, N-(6-(1-(3,4-dimethyltetrahydrofuran-3-yl)piperidin-4-yl)-7-methylisoquinolin-3-yl)-6-oxaspiro[2.5]octane-1-carboxamide]
0.1	O=C(Nc1cc2cc(C3CCN(C4COCC4O)CC3)c(Cl)cc2cn1)C1CC12CCOC2 (single isomer, unassigned) [Ex-8.5, N-(7-chloro-6-(1-(4-hydroxytetrahydrofuran-3-yl)piperidin-4-yl)isoquinolin-3-yl)-5-oxaspiro[2.4]heptane-1-carboxamide]
39.8	CC1(C)COCC1(C)N1CCC(c2cc3cc(NC(=O)C4CC45CCOCC5)ncc3cc2Cl)CC1 (single isomer, unassigned) [Ex-6.19, N-(7-chloro-6-(1-(3,4,4-trimethyltetrahydrofuran-3-yl)piperidin-4-yl)isoquinolin-3-yl)-6-oxaspiro[2.5]octane-1-carboxamide]
4.47	CC(C)(O)C1CC1C(=O)Nc1cc2cc(C3CCN(C4(C)COC4)CC3)c(Cl)cc2cn1 (single isomer, unassigned) [Ex-22.1, (1R,2R or 1S,2S)-N-(7-chloro-6-(1-(3-methyloxetan-3-yl)piperidin-4-yl)isoquinolin-3-yl)-2-(2-hydroxypropan-2-yl)cyclopropanecarboxamide]
0.0813	CC1(C)CC(C(=O)Nc2cc3cc(C4CCN(C5(C)COCC5F)CC4)c(Cl)cc3cn2)CCO1 (single isomer, unassigned) [Ex-6.36, N-(7-chloro-6-(1-(4-fluoro-3-methyltetrahydrofuran-3-yl)piperidin-4-yl)isoquinolin-3-yl)-2,2-dimethyltetrahydro-2H-pyran-4-carboxamide]
0.178	Cn1cc(C2CC2C(=O)Nc2cc3cc(C4CCN(C5(C)COCC5F)CC4)c(Cl)cc3cn2)cn1 (single isomer, unassigned) [Ex-6.31, N-(7-chloro-6-(1-(4-fluoro-3-methyltetrahydrofuran-3-yl)piperidin-4-yl)isoquinolin-3-yl)-2-(1-methyl-1H-pyrazol-4-yl)cyclopropane-1-carboxamide]
9.55	N#CC1(c2ccc3cnc(NC(=O)C4CC45CCOCC5)cc3c2)CC12CC2 (single isomer, unassigned) [Ex-18.11, (R or S)-N-(6-((R or S)-1-cyanospiro[2.2]pentan-1-yl)isoquinolin-3-yl)-6-oxaspiro[2.5]octane-1-carboxamide]
0.0813	CC1(C)CC(C(=O)Nc2cc3cc(C4CCN(C5(C)COCC5F)CC4)c(Cl)cc3cn2)CCO1 (single isomer, unassigned) [Ex-6.37, N-(7-chloro-6-(1-(4-fluoro-3-methyltetrahydrofuran-3-yl)piperidin-4-yl)isoquinolin-3-yl)-2,2-dimethyltetrahydro-2H-pyran-4-carboxamide]
10.5	Cc1cc2cnc(NC(=O)C3CC3c3cnn(C)c3)cc2cc1C1CC12CC2 (single isomer, unassigned) [Ex-16.3, 2-(1-methyl-1H-pyrazol-4-yl)-N-(7-methyl-6-(spiro[2.2]pentan-1-yl)isoquinolin-3-yl)cyclopropane-1-carboxamide]
6.61	CC1(N2CCC(c3cc4cc(NC(=O)C5CC5c5ccccn5)ncc4cc3Cl)CC2)CCOC1 (single isomer, unassigned) [Ex-6.35, N-(7-chloro-6-(1-(3-methyltetrahydrofuran-3-yl)piperidin-4-yl)isoquinolin-3-yl)-2-(pyridin-2-yl)cyclopropane-1-carboxamide]
38.9	CC1OCCC1N1CCC(c2cc3cc(NC(=O)C4CC4)ncc3cc2Cl)CC1 (single isomer, unassigned) [Ex-9.10, N-(7-chloro-6-(1-(2-methyltetrahydrofuran-3-yl)piperidin-4-yl)isoquinolin-3-yl)cyclopropanecarboxamide]
